Common to all, as to type: functional
Test [1] has as its system PBMC. The test can be described thus: Inhibition of LPS-stimulated TNFalpha secretion in human PBMC cells at 10 uM after 24 hrs by ELISA.
Test [2] has as its system PBMC. The test can be described thus: Inhibition of LPS-stimulated TNFalpha secretion in human PBMC cells at 50 uM after 24 hrs by ELISA. Background: In an ELISA, binding on a coated surface is turned into a signal by an enzyme label.
Test [3] relates to THP-1. The test can be described thus: Inhibition of LPS-stimulated TNFalpha secretion in human THP1 cells at 10 uM after 24 hrs by ELISA. The settings on record: THP-1, 24 h.
Test [4] concerns THP-1. The test can be described thus: Inhibition of LPS-stimulated TNFalpha secretion in human THP1 cells at 50 uM after 24 hrs by ELISA. The settings on record: THP-1, 24 h.

The structures appear in SMILES notation.

For `Nc1c(-c2ccccc2)c2ccccc2[nH]c1=O`, at 10 µM the inhibition in the test on PBMC [1] was 29%. In the test with PBMC [2], this compound showed an inhibition at 50 µM of 79%.
`COCCN(CCOC)c1c(-c2ccccc2)c2ccccc2[nH]c1=O` displayed an inhibition at 10 µM in the test with THP-1 [3] of 0%. Also, in the test on THP-1 [4], 50 µM produced 59% inhibition.
In the same order, the values of `CN(C)C(=O)N1CCN(c2c(-c3ccccc3)c3ccccc3[nH]c2=O)CC1` are 21% and 43%.
As to `COc1c(-c2ccccc2)c2ccccc2[nH]c1=O`, the inhibition at 10 µM with THP-1 [3] came to 7%; in the test on PBMC [1], 24%. Further, the inhibition at 50 µM was found to be 10% with THP-1 [4] and 67% in the test with PBMC [2].
In the same order, the values of `CCc1c(-c2ccccc2)c2ccccc2[nH]c1=O` are 3%, 32%, 80% and 50%.
Regarding `CN(C)c1c(-c2ccccc2)c2ccccc2[nH]c1=O`, 10 µM produced 0% inhibition with THP-1 [3]. The same compound displayed an inhibition at 50 µM in the test on THP-1 [4] of 83%.
For `CNc1c(-c2ccccc2)c2ccccc2[nH]c1=O`, the inhibition at 10 µM in the test on THP-1 [3] came to 50%; in the test with PBMC [1], 36%. Besides, the inhibition at 50 µM with THP-1 [4] turned out to be 97%; with PBMC [2] it was 67%.
`CN(CCO)c1c(-c2ccccc2)c2ccccc2[nH]c1=O` yielded an inhibition at 10 µM with THP-1 [3] of 0%. This compound also came in with an inhibition at 50 µM with THP-1 [4] of 21%.
Consider `CSc1c(-c2ccccc2)c2ccccc2[nH]c1=O`, for which the results for the inhibition at 10 µM in the test on THP-1 [3] and in the test on PBMC [1] were 49% and 78%, respectively. For the same compound, the inhibition at 50 µM in the test on THP-1 [4] was determined as 93%; in the test on PBMC [2], 95%.
Consider `CSc1c(-c2ccccc2)c2cc([N+](=O)[O-])ccc2[nH]c1=O`, for which 10 µM produced 86% inhibition with PBMC [1]. In the test with PBMC [2], this compound registered an inhibition at 50 µM of 94%.

As a reminder, the inhibition is the share of the control response that was lost under treatment.

The record behind these values is ChEMBL document CHEMBL1137459, “Synthesis of 3-O-methylviridicatin analogues with improved anti-TNF-alpha properties” (2007).
